Measurements published in patent US7314959B2, “Amino thiol compounds and compositions for use in conjunction with cancer therapy” (Wisconsin Alumni Research Foundation, priority 2003, dated 2008).
“Also recorded” adds a separate entry of the source.

Columns and labels:
[1] = test system: hamster cheek pouch mucosa; test: Radiation-induced mucositis, hamster cheek pouch model; type: in vivo; conditions: 50 mM or 500 mM topical for 30 min before 30 Gy (17.5 min) irradiation
Excerpt: The model for radiation-induced oral mucositis was developed for the purpose of screening and identifying effective polyamines and aminothiols useful for treatment. The model used in this example was derived from the oral mucositis model described by Alvarez et al. (Clin. Cancer Research 9:3454-3461, 2003). Male golden Syrian hamsters (70-95 gram, Charles River Laboratories, Wilmington, Mass.) were used. Animals were individually numbered, housed in small groups and fed and watered ad libitum. Hamsters were anesthetized with sodium pentobarbital (80 mg/kg body weight, Sigma, St. Louis, Mo.). The left buccal cheek pouch was everted and secured. A protective lead shield covered the remainder of the animal. Subsequently, the cheek pouch was irradiated with a single dose of radiation from 20 to 40 Gy delivered to the targeted mucosa in the ^137Cs irradiator. Starting 10 to 12 days after radiation, the severity of mucositis was assessed every two days. The severity level of mucositis was evaluated using a modified mucositis scoring system described by Sonis S. T. et al. (Oral Oncology 36:373-381, 2000)
The scoring system was as follows: • 0=Pouch completely healthy. No erythema or vasodilatation. • 1=Erythema. • 2=Severe erythema, vasodilatation • 3=Severe erythema/vasodilatation. Superficial erosion on radiated pouch surface area. • 4=Formation of ulcers in one or more places. […]

[2] = test system: B16 melanoma tumor xenografts; test: Effect of topical drug on killing of tumor xenograft by systemic Cytoxan; type: in vivo, mouse; conditions: topical dose 5-times higher than standard regimen; Cytoxan 200 ug/gm b.w. ip
p21 in human fibroblasts = test: p21 western blot in human skin fibroblasts; type: cell-based; conditions: IC70 concentration of PrC-210 (4100 μM); cysteamine 600 μM; 30 hour exposure
Procedure: Methods (Cell cycle and p21 western): The cell culture experiments were done using primary, human skin fibroblasts, one strain of which (BJ cells) was obtained from ATCC (American Type Culture Collection). […] For flow cytometry and p21 experiments, cells were plated at 0.5×10^6 cells/150 mm plate, and 24 hr later, drug molecules (4100 μM PrC-210, 600 μM cysteamine, 205 μM cysteamine analog, 0.4 μg/ml colcemid) were added to medium. […] (Cancer Research. 61(21):7754-62, 2001). As per the cited reference, cells were fixed, treated with RNAse, and stained with propidium iodide for flow cytometry, or cells were extracted, proteins electrophoresed, and probed with anti-p21 antibody (#SXM-30) for western blot analysis.

## CNCC(CS)CNC [PrC-210, 3-methylamino-2-methylaminomethyl-propane-1-thiol]
[1]
  effect on radiation-induced erythema, swelling and inflexibility of cheek pouch: significant decrease in the erythema, swelling and inflexibility
[2]
  effect upon killing of tumor xenografts by systemic Cytoxan chemotherapy: no discernible effect
p21 in human fibroblasts
  p21 expression: induces expression of the cell cycle regulator, p21; also recorded: marked induction of p21 expression
